Source: patent US7833553B2, “Sulfur-containing proanthocyanidin oligomer compositon and process for producing the same” (Amino Up Chemical Co. Ltd., priority 2003, dated 2010)

How the values were obtained:
[1] = Superoxide dismutase (SOD)-like activity (SOD Test Wako kit); format: biochemical
Protocol: With respect to Substances 1 to 4 and Comparative Substances 1 and 2 which were the same as those used in Test Example 1, SOD-like activity was measured using a blood SOD activity measuring kit (SOD Test Wako: manufactured by Wako Pure Chemical Industries, Ltd.). SOD-like activity was calculated according to the following formula and 50% effective concentration (EC50) was calculated based on the relationship with the concentration of test sample. SOD-like activity(%)=[(1−(absorbance of test sample))/(absorbance of control)]×100
EC50 was calculated from SOD-like activities in gradual concentrations of each sample.

[2] = DPPH radical scavenging effect; format: biochemical; details: 60 μM DPPH, room temperature 30 minutes, absorbance 520 nm
Protocol: 100 μl of a DPPH solution (60 μM ethanol solution) was charged in a 96-well microplate and 100 μl of an ethanol solution as a test sample or 100 μl of ethanol as a control was added, and the whole was gently mixed and left to stand at room temperature for 30 minutes. Then, absorbance at 520 nm was measured and a DPPH radical scavenging ability was calculated according to the following formula. 50% effective concentration (EC50) was calculated from the DPPH radical scavenging ability and concentrations of gradually diluted test samples. DPPH radical scavenging ability(%)=[(1−(absorbance of test sample))/(absorbance of control)]×100
50% effective concentration (EC50) was calculated from DPPH radial scavenging abilities in gradual concentrations of each sample.

Substance: catechin [Comparative Substance 2]
- EC50 in SOD-like activity [1]: 62.0 µg/mL
- EC50 in DPPH radical scavenging [2]: 1.71 µg/mL
